Measured values as given in ChEMBL document CHEMBL1133432, “Probes for imidazoline binding sites: synthesis and evaluation of a selective, irreversible I2 ligand” (Bioorg Med Chem Lett, 2000).
pKi: −log10 of the molar value.

Key:
[1] = target: T1, Adrenergic receptor alpha-2 (Rattus norvegicus, UniProt P22086+P19328+P22909); assay: Inhibition of 1 nM [3H]RX-821002 binding to rat whole brain membrane Alpha-2 adrenergic receptors
T1 sequence (P22086 whole entry): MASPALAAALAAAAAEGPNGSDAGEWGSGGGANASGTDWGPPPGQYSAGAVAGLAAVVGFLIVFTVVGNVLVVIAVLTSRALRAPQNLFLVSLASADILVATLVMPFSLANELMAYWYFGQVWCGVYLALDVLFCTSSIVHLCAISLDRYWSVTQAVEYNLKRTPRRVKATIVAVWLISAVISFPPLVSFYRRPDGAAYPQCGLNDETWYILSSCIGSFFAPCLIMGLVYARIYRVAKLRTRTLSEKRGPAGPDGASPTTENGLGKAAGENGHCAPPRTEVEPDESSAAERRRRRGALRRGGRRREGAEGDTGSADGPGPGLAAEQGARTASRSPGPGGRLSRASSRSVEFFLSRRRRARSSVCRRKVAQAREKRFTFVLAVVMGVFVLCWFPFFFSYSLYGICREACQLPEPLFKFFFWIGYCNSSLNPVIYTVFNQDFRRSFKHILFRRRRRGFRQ
T1 sequence (P19328 whole entry): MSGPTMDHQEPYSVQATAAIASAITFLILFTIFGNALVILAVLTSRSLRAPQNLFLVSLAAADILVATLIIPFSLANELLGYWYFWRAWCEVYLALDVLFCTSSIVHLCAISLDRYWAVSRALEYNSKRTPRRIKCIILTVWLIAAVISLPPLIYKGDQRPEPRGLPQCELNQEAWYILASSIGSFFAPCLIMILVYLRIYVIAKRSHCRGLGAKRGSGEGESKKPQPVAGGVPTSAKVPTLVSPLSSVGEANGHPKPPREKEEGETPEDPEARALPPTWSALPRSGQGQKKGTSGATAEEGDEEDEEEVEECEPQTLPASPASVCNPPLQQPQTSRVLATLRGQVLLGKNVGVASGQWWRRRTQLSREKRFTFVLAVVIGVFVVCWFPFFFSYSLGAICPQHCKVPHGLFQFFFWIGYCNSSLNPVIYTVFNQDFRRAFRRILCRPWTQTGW
T1 sequence (P22909 whole entry): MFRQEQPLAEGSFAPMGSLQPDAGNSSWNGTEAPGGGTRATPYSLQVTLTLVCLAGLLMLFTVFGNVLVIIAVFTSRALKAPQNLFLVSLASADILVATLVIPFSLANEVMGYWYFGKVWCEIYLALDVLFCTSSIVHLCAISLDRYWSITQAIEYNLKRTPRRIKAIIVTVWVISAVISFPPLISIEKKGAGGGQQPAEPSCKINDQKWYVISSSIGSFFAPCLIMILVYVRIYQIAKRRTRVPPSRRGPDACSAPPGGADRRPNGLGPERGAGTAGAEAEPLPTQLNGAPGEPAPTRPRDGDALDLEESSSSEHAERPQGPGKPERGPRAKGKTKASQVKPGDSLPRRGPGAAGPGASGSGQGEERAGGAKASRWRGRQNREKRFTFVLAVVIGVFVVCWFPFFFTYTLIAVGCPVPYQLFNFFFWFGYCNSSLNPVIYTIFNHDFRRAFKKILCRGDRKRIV

[2] = Inhibition of 1 nM [3H]2-BFI binding to rat whole brain membrane imidazoline receptor I-2

Ki [1]	pKi [2]	SMILES
16300 nM	8.64	N#CSc1ccc2oc(C3=NCCN3)cc2c1
1900 nM	8.77	c1ccc2oc(C3=NCCN3)cc2c1
